In brackets after ≈: the same amount, converted by molar mass. Entries after “also recorded” stand apart in the source; their conditions may differ. Read-outs that look alike come from different tables or passages of the source.
Assays:
[1] = molecular target: T1, mouse eugenol OR (mOR-EG) (Mus musculus, UniProt Q920P2); assay: mOR-EG/AC Ca2+ imaging: mOR-EG + Gαolf + CNGC-camp in HEK293T cells; type: cell-based; conditions: for decay time 90% to 10%, AC-dependent Ca2+ response / time of peak, AC-dependent Ca2+ response / time to rise 10% to 90%, AC-dependent Ca2+ response: saturating response parameters
T1 sequence (Q920P2 1-313): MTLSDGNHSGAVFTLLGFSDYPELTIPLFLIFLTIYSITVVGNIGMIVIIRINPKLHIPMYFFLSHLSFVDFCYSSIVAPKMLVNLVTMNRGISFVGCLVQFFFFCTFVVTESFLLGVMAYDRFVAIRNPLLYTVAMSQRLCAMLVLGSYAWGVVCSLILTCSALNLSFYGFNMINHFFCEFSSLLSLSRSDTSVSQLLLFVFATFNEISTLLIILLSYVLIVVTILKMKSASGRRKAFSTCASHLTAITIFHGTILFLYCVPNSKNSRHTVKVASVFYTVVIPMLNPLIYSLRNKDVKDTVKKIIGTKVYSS

[2] = molecular target: T1, mouse eugenol OR (mOR-EG); type: cell-based; conditions: up to 1 mM
[3] = molecular target: T1, mouse eugenol OR (mOR-EG); assay: dual read-out assay, mOR-EG/PLC and mOR-EG/AC responses compared; type: cell-based; conditions: for functional bias between PLC and AC pathways (in words): pair-wise comparison of EC50 values; for AC-/PLC- mediated Ca2+ response (result in words): both read-outs, up to 1-5 mM
[4] = molecular target: T1, mouse eugenol OR (mOR-EG); assay: mOR-EG/PLC Ca2+ imaging: mOR-EG + Gα15 in HEK293T cells; type: cell-based; conditions: for decay time 90% to 10%, PLC-dependent Ca2+ response / time of peak, PLC-dependent Ca2+ response / time to rise 10% to 90%, PLC-dependent Ca2+ response: saturating response parameters
CNGC-camp = assay: stimulation of endogenous purinergic Gαq pathway, CNGC-camp read-out; type: cell-based, rat; conditions: 100μM, saturating
[5] = pH7; source not stated; cited from earlier work
[6] = source not stated; cited from earlier work
HEK293T cells = assay: control HEK293T cells lacking components of the read-out; type: cell-based; conditions: eugenol 0.5-2mM; forskolin 20μM; n>500
adenylate cyclase = assay: forskolin-induced Ca2+ influx in mOR-EG/Gαs

Compound | decay time 90% to 10%, AC-dependent Ca2+ response [1] | time of peak, AC-dependent Ca2+ response [1] | time to rise 10% to 90%, AC-dependent Ca2+ response [1] | functional bias between PLC and AC pathways (in words) [3] | decay time 90% to 10%, PLC-dependent Ca2+ response [4] | time of peak, PLC-dependent Ca2+ response [4] | time to rise 10% to 90%, PLC-dependent Ca2+ response [4] | AC-/PLC- mediated Ca2+ response (result in words) [3] | also measured
isoeugenol | 104 ± 4.8 s | 95.3 ± 4.8 s | 36.7 ± 2.7 s | biased activation of the PLC pathway | 54.5 ± 2.6 s | 37.1 ± 3.5 s | 14.8 ± 1.6 s | – | normalized peak magnitude, mOR-EG/AC response ([1]; normalized to eugenol): 0.14±0.11; slow Gαs(olf)-dependent response in dual-response cells [2]: failed to evoke noticeable Gαs(olf)-dependent Ca^2+ signal; slow Gαs(olf)-dependent response in dual-response cells ([2]; listed as Isoeugenol): not able to evoke a slow Gαs(olf)-dependent response; potency in mOR-EG/PLC signaling in comparison to mOR-EG/AC signaling ([3]; ratio of EC50 values): ~ 8 fold; normalized peak magnitude, mOR-EG/PLC response ([4]; normalized to eugenol): 0.38±0.03
Nc1ncnc2c1ncn2[C@@H]1O[C@H](COP(=O)(O)OP(=O)(O)OP(=O)(O)O)[C@@H](O)[C@H]1O [ATP] | – | – | – | – | – | – | – | – | activation of CNGC-camp (CNGC-camp): did not induce appreciable activation of CNGC-camp
CCC(C)(C)C1CCC(=O)CC1 [orivone] | 101 ± 5 s | 94.9 ± 5.3 s | 36.4 ± 2.6 s | activated both pathways with similar EC50 values | 47.6 ± 4.1 s | 29.8 ± 2.3 s | 8 ± 1 s | – | –
CC(C)(C)c1ccc(O)cc1 [4-tert-butylphenol] | – | – | – | – | – | – | – | failed to activate any response; also recorded: no effects | –
C=C(C)[C@@H]1CCC2=CC(=O)C[C@@H](C)[C@]2(C)C1 [nootkatone] | – | – | – | – | – | – | – | failed to activate any response; also recorded: no effects | solubility [5]: 240 µM (≈ 52.4 µg/mL); logP [6]: 3.8
CC(=O)CCc1ccc(O)cc1 [raspberryketone, raspberry ketone] | – | – | – | – | – | – | – | no effects | AC-/PLC- mediated Ca2+ response (result in words) ([3]; listed as raspberry ketone): failed to activate any response
C=CCc1ccc(OC(C)=O)c(OC)c1 [acetyl eugenol] | 125.5 ± 5.1 s | 90.8 ± 3.4 s | 27.6 ± 1.7 s | activated both pathways with similar EC50 values | 44 ± 1 s | 19.6 ± 0.9 s | 7.7 ± 0.4 s | – | EC50 [1]: 373 ± 49 µM; solubility [5]: 1400 µM (≈ 289 µg/mL); logP [6]: 2.7; EC50 [4]: 348 µM
C=C[C@@]1(C)CC(=O)[C@]2(O)[C@@]3(C)[C@@H](O)CCC(C)(C)[C@@H]3[C@H](O)[C@H](OC(C)=O)[C@@]2(C)O1 [forskolin] | – | – | – | – | – | – | – | – | Ca2+ response in cells expressing mOR-EG and Gαolf without CNGC-camp (HEK293T cells): did not generate noticeable Ca^2+ responses; Trise of Ca2+ influx on re-addition of 2 mM Ca2+ (adenylate cyclase; 10μM forskolin applied in 0-Ca2+, Ca2+ added 60 s after stimulation (Fig.3F)): 24.3 ± 3.1 s; effect on Ca2+ concentration (adenylate cyclase; 10 μM, 5 sec pulse, mOR-EG/Gαs(olf) cells): increased the Ca^2+ concentration; Trise of response to forskolin (adenylate cyclase; 10μM, extracellular Ca2+ present (Fig.3E)): 76.7 ± 5.7 s
